From patent US20090269734A1, “METHOD FOR DETERMINATION OF RECOGNITION SPECIFICITY OF VIRUS FOR RECEPTOR SUGAR CHAIN” (priority 2005, published 2009)

Columns and labels:
[1] = system: human B virus: B/Lee/40; type: binding, human influenza B virus
[2] = system: avian A virus: A/duck/Hong Kong/24/76 (H3N2); type: binding, avian influenza A virus
[3] = system: human A virus: A/Memphis/1/71/(H3N2); type: binding, human influenza A virus

Substance	recognition of the polymer with sialo-oligosaccharide by the human influenza B virus (absorbency at 492 nm) [1]	recognition of the polymer with sialo-oligosaccharide by the avian influenza A virus (absorbency at 492 nm) [2]	recognition of the polymer with sialo-oligosaccharide by the human influenza A virus (absorbency at 492 nm) [3]
Poly (Neu5Ac α2-3Gal β1-4GlcNAc β-pAP/α-PGA)	weak	strongly recognizes	weak
Poly (Neu5Ac α2-6Gal β1-4GlcNAc β-pAP/α-PGA)	strongly recognizes	weak	strongly recognizes
